The test system of experiment [1] is P. aeruginosa PA14 gacA biofilms. Put plainly: Antibiotic susceptibility profiling of biofilms with the MBEC device. In kind it is cell-based, Pseudomonas aeruginosa. The settings on record: in words. The procedure:
Growth Conditions, Sample Analysis and Bio-Assays of Pseudomonas aeruginosa. Biofilm and planktonic growth studies were performed using the Calgary Biofilm Device (CBD) (MBEC™ Biofilm Technologies Limited). Pseudomonas aeruginosa PA14 wild type, gacA and toxA strains were grown for 24 hours in Tryptic Soy Broth (BDH). Biofilm and planktonic populations were sampled at points.
Sampling of biofilm populations was achieved by dislodging a peg from the 96 peg lid, whereas planktonic populations were sampled by removing an aliquot from the growth vessel. Biofilms were disrupted to release individual component cells by sonication. Cell counts of both populations were determined by serial dilution in 0.9% saline and spot plating on Tryptic Soy Agar plates (BDH). Antibiotic susceptibility profiling of P. aeruginosa PA14 wild type, toxA and gacA strains was performed using the MBEC™ device as per manufacturer's instructions (MBEC™ Biofilm Technologies Limited).

In experiment [2] the test system is Pseudomonas aeruginosa PA14 gacS^− biofilms. Put plainly: Frequency of SCV cells arising from 24-h biofilms exposed for 18 h. It is filed as cell-based. Particulars: for No. of survivors / Log-survival / SCV frequency: LB broth, overnight (18 h).
The test system is the same in experiment [3]. The experiment is described as above. It is filed as cell-based. The settings on record: for frequency of SCVs (phenotypic variants) among surviving cells, in words: 18 h exposure of 24-h biofilms; for Log-survival / SCV frequency: LB broth, antibiotic 1.25 μg mL^−1, overnight (18 h). On the procedure: In an alternative set of experiments, the frequency of SCV cells arising from 24-h biofilms of P. aeruginosa PA14 gacS was evaluated. Antibiotics were diluted from stock solutions into LB broth to obtain final concentrations of […]. These were arranged in triplicate in a micro-titre plate. Biofilms were incubated in these low concentrations of antibacterials for 18 h at 35° C. and 95% relative humidity. Goat and human serum were also assayed in this array, and were kind gifts from The Life and Environmental Sciences Animal Care Facility at the University of Calgary, Department of Biological Sciences. After exposure, biofilms were treated in a manner identical to that described above.
Frequency of phenotypic variation. During the course of susceptibility assays, the proportion of SCV cells recovered from biofilms after exposure to Ag^+ or H2O2 was increased relative to the corresponding growth controls. It was queried whether this may be true for other antimicrobial agents or growth conditions. An array of clinically used antibiotics, saline, and goat and human sera were examined for an ability to select for these SCVs from 24-h biofilms of P. aeruginosa PA14 gacS. Biofilms were exposed to these agents for 18 h and each assay was performed in triplicate. Viable cell counts were determined for each exposure condition, and log-survival was determined. The proportion of SCV cells in bacterial populations recovered from these exposure conditions was calculated as the mean of the proportions from each individual trial.

In experiment [4] the test system is Pseudomonas aeruginosa PA14 SCV. The experiment can be described thus: MIC determination, planktonic cells shed from biofilms (MBEC P&G device). In kind it is cell-based. The settings on record: SCV; planktonic cells; OD650 after 72 h at 35° C.; mean ± SD of four trials. On the procedure:
(§1) Antimicrobial susceptibility testing. Antibiotic, metal and biocide susceptibility tests were performed. Antimicrobials were arranged into arrays in microtitre plates that typically consisted of serial two-fold dilutions along the rows of wells (the challenge plates). The first and last wells of every row were used as sterility and growth controls, respectively. […] Biofilms were rinsed with PBS (to remove loosely adherent planktonic cells) and inserted into the challenge plates. After exposure, biofilms were rinsed once in PBS and inserted into microtitre plates containing […] of recovery medium in each well (LB broth, 5 mM GSH, 5 mM L-cys, 1% v/v tween-20). These biofilms were disrupted into the recovery medium using a sonicator, and the recovered cells were serially diluted and plated for viable cell counting. Spot plates from these experiments were incubated for a minimum of 36 h at 35° C. before enumeration. Minimum inhibitory concentration (MIC) values were determined by reading the optical density at 650 nm (OD650) of challenge plates after 72 h at 35° C. using a THERMOmax microplate reader with SOFTMAX PRO data analysis software (Molecular Devices, Sunnyvale, Calif.).
(§2) For susceptibility testing, growth-curve data were used to calibrate incubation times to produce biofilms of similar cell density. […] In this model system, planktonic cells shed from the surface of biofilms served as the inoculum for MIC determinations.

In experiment [5] the test system is Pseudomonas aeruginosa PA14 gacS^−. The experiment is described as above. In kind it is cell-based. Particulars: gacS^−; planktonic cells; OD650 after 72 h at 35° C.; mean ± SD of four trials. The procedure: as §1, §2
The test system of experiment [6] is Pseudomonas aeruginosa PA14 SCV biofilms. Put plainly: Biofilm susceptibility testing (viable cell counts, log-killing, MBEC99.9). It is filed as cell-based.
Text: (§3) Biofilm formation. Biofilms were aerobically cultivated using the MBEC high-throughput (HTP) or Physiology and Genetics (P&G) device (Innovotech, Edmonton, Canada) as described in the manufacturer's instructions and by Ceri et al. (1999). To summarize, the parts of this batch culture apparatus were used in two ways. The top half of the plastic MBEC™-HTP device is a lid with 96 polystyrene pegs that also fits over a standard 96-well microtitre plate. For Biofilm growth, the bottom half was either (1) a corrugated trough that guided 22 mL of inoculum across the pegs when the device was placed on a rocker at 3.5 rocks per min (HTP format), or (2) a microtitre plate with […] of inoculum in each well that was placed on a gyrorotary shaker at 150 r.p.m. (P&G format). For either assay format, the inoculum was prepared to c. 10^7CFU/mL1 of the desired strain and the inoculated device was incubated at 35° C. and 95% relative humidity for the required time. Unless otherwise noted, all experiments utilized the MBEC P&G assay. Pegs from the devices were collected at specific time points for scanning electron microscopy and scanning confocal laser microscopy. Biofilm cell densities were evaluated by breaking pegs from the lid of the MBEC device with sterile pliers, rinsing the peg in PBS, and subsequent viable-cell counting as described above. PBS containing the […] surfactant Tween-20 (1% v/v) was used to assist in recovery of bacteria from the peg surfaces. Pegs were sonicated for 30 min in an Aquasonic model 250HT ultrasonic cleaner (VWR International, Mississauga, Canada). Samples of broth culture were collected at the same time points and viable cell counts were determined in a similar manner.
as §1, §2

In experiment [7] the test system is Pseudomonas aeruginosa PA14 gacS^− biofilms. The experiment is described as above. The settings on record: 2 h exposure. It is filed as cell-based.
Text: as §3, §1, §2

Experiment [8] deals with Pseudomonas aeruginosa PA14 wild-type biofilms. In kind it is cell-based. Particulars: wild type biofilms; 2 h exposure; 3 log10 reduction in viable cells.
Text: as §3, §1, §2

Experiment [9] has as its system Pseudomonas aeruginosa PA14 wild-type. The experiment can be described thus: microbe, parasite or virus in culture. It is filed as cell-based. On the procedure: as §1, §2

As to `CC[C@H]1OC(=O)[C@H](C)[C@@H](O[C@H]2C[C@@](C)(OC)[C@@H](O)[C@H](C)O2)[C@H](C)[C@@H](O[C@@H]2O[C@H](C)C[C@H](N(C)C)[C@H]2O)[C@](C)(O)C[C@@H](C)CN(C)[C@H](C)[C@@H](O)[C@]1(C)O` [azythromycin], in experiment [1], the “biofilm resistance relative to PA14 wild type or toxA control strain” value is recorded as “moderately decreased resistance”.
In experiment [2] (antibiotic 1.25 μg mL^−1), `NC[C@H]1O[C@H](O[C@H]2[C@H](O)[C@@H](O[C@H]3O[C@H](CO)[C@@H](O)[C@H](N)[C@H]3O)[C@H](N)C[C@@H]2N)[C@H](N)C[C@@H]1O` [Tobramicin] yielded a No. of survivors of 5.4 ± 0.5 log10 CFU peg^−1. For the same compound, in experiment [3], the “frequency of SCVs (phenotypic variants) among surviving cells, in words” value (“frequency of SCVs” for short) is recorded as “approximately one in five”; the Log-survival was −1.0 ± 0.5 log10 CFU peg^−1; the SCV frequency is reported as 14%.
For the compound `O=C(N[C@H](CO)[C@H](O)c1ccc([N+](=O)[O-])cc1)C(Cl)Cl` [chloramphenicol], the “biofilm resistance relative to PA14 wild type or toxA control strain” value in [1] is listed as “moderately decreased resistance”.
On to `C[C@@H](O)[C@H]1C(=O)N2C(C(=O)O)=C(SCCN=CN)C[C@H]12` [Imipenem], for which the No. of survivors in [2] (antibiotic 1.25 μg mL^−1) stood at 2.7 ± 1.0 log10 CFU peg^−1. In [3], this compound had a Log-survival of −3.8 ± 1.0 log10 CFU peg^−1 and an SCV frequency of 0%.
With `C[C@H]1[C@H](NC(=O)/C(=N\OC(C)(C)C(=O)O)c2csc(N)n2)C(=O)N1S(=O)(=O)O` [Azetronam], in experiment [2] (antibiotic 1.25 μg mL^−1), the No. of survivors came to 4.5 ± 0.5 log10 CFU peg^−1. In [3], the Log-survival is −2.6 ± 0.5 log10 CFU peg^−1 and the SCV frequency is reported as 24%.
For the compound polymixin B, the “biofilm resistance relative to PA14 wild type or toxA control strain” value in experiment [1] is “moderately decreased resistance”.
With `CCN1CCN(C(=O)N[C@@H](C(=O)N[C@@H]2C(=O)N3[C@@H]2SC(C)(C)[C@@H]3C(=O)O)c2ccccc2)C(=O)C1=O` [piperacillin], the “biofilm resistance relative to PA14 wild type or toxA control strain” value in [1] is on record as “moderately decreased resistance”. In addition, the “frequency of SCVs” value in experiment [3] is “approximately one in three”.
In experiment [2] (antibiotic 5 μg mL^−1), `NCC[C@H](O)C(=O)N[C@@H]1C[C@H](N)[C@@H](O[C@H]2O[C@H](CN)[C@@H](O)[C@H](O)[C@H]2O)[C@H](O)[C@H]1O[C@H]1O[C@H](CO)[C@@H](O)[C@H](N)[C@H]1O` [Amikacin] gave a Log-survival of −2.8 ± 0.6 log10 CFU peg^−1, a No. of survivors of 3.6 ± 0.6 log10 CFU peg^−1 and an SCV frequency of 23%. For the same compound, the “frequency of SCVs” value in [3] is reported as “approximately one in five”.
`CO/N=C(\C(=O)N[C@@H]1C(=O)N2C(C(=O)O)=C(CSc3nc(=O)c(O)nn3C)CS[C@H]12)c1csc(N)n1` [Ceftrioxone] yielded a No. of survivors in experiment [2] (antibiotic 1.25 μg mL^−1) of 6.8 ± 0.5 log10 CFU peg^−1. For the same compound, in experiment [3], the “frequency of SCVs” value is “approximately one in three”; the Log-survival entry is reported as “+0.4 ± 0.5 log10 CFU peg^−1”; the SCV frequency amounted to 29%.
As for `CO[C@H]1/C=C/O[C@@]2(C)Oc3c(C)c(O)c4c(O)c(c(/C=N/N5CCN(C)CC5)c(O)c4c3C2=O)NC(=O)/C(C)=C\C=C\[C@H](C)[C@H](O)[C@@H](C)[C@@H](O)[C@@H](C)[C@H](OC(C)=O)[C@@H]1C` [Rifampicin], the “cells killed from the biofilm population” value in experiment [2] (5 μg/mL) turned out to be 0.7 log10 cells. In experiment [2] (antibiotic 5 μg mL^−1), this compound yielded a Log-survival of −0.7 ± 0.3 log10 CFU peg^−1, a No. of survivors of 5.7 ± 0.3 log10 CFU peg^−1 and an SCV frequency of 58%.
As for `[Cu+2]` [Cu^2+], the MIC72 h was 4 ± 0 mM in [4]; 8 ± 0 mM in experiment [5]; 8 ± 0 mM in experiment [9] (wild type, planktonic cells, OD650 after 72 h at 35° C., mean ± SD of four trials). Moreover, the MBEC99.9 in [6] (SCV biofilms, 2 h exposure, 3 log10 reduction in viable cells) was determined as 64 ± 0 mM; in experiment [7] (gacS^− biofilms, 3 log10 reduction in viable cells), 7 ± 2 mM; in experiment [8] it was 8 ± 0 mM. Besides, in experiment [6] (ratio of MBEC99.9 values, SCV vs wild type), the “tolerance of SCV strain biofilms relative to the wild-type strain” value is listed as “eight”. Moreover, in experiment [7] (LB broth, 16 μg mL^−1), the Log-survival is reported as −0.9 ± 0.1 log10 CFU peg^−1. The compound also gave a No. of survivors in experiment [7] (LB broth, 16 μg mL^−1) of 4.2 ± 0.1 log10 CFU peg^−1. Besides, in experiment [7] (LB broth, 16 μg mL^−1), the SCV frequency stood at 0%. For the same compound, the “differences in planktonic cell susceptibility between the different strains” value in [9] (wild type vs gacS^− vs SCV, log2 difference or less) is “no significant differences”.
In turn, `Cc1onc(-c2ccccc2)c1C(=O)N[C@@H]1C(=O)N2[C@@H]1SC(C)(C)[C@@H]2C(=O)O` [Oxacilin] had a No. of survivors in [2] (antibiotic 1.25 μg mL^−1) of 5.6 ± 0.6 log10 CFU peg^−1. Also, in experiment [3], the “frequency of SCVs” value is recorded as “approximately one in three”; the Log-survival is −0.9 ± 0.6 log10 CFU peg^−1; the SCV frequency is given as 32%.
Consider `CC[C@H]1OC(=O)[C@H](C)[C@@H](O[C@H]2C[C@@](C)(OC)[C@@H](O)[C@H](C)O2)[C@H](C)[C@@H](O[C@@H]2O[C@H](C)C[C@H](N(C)C)[C@H]2O)[C@](C)(O)C[C@@H](C)C(=O)[C@H](C)[C@@H](O)[C@]1(C)O` [Erythromicin], for which the “biofilm resistance relative to PA14 wild type or toxA control strain” value in experiment [1] is “moderately decreased resistance”. In [2] (antibiotic 5 μg mL^−1), this compound registered a Log-survival of −0.1 ± 0.3 log10 CFU peg^−1, a No. of survivors of 6.4 ± 0.3 log10 CFU peg^−1 and an SCV frequency of 0%. In addition, the “selection for SCVs / increase of the frequency of SCV cells compared with growth controls” value in experiment [3] (in words) is listed as “in no instances”.

For the origin of these results see patent US20080075730A1, “Methods and compositions for treating biofilms” (priority 2003, published 2008).
